What was measured:
[1] = system: uveitis model rats; assay: Anti-uveitis pharmacodynamic experiment (LPS model): ocular pathological score; assay type: in vivo, male SD rats; conditions: compared with the model group
[2] = system: IL-17; assay: Psoriasis experiment (imiquimod model): inflammatory cytokine in serum (ELISA); assay type: in vivo, mice; conditions: compared with the model group
Description: Positive control drug: Fluticasone Propionate Cream (specification: 0.05% × 15 g, Zhejiang Xianju Pharmaceutical Co. Ltd., Lot No. 211106), stored at room temperature protected from light until use.
Adult mice were selected, and the skin of 2 cm × 3 cm on the back of mice was locally depilated. The mice in the model group and drug administration group were applied with 62.5 mg of 5% imiquimod cream on their back for modeling, while the mice in the blank control group were applied with medical petroleum jelly on their back daily. The above procedures were performed once a day for 7 consecutive days.
The mice in the drug administration group were applied with the corresponding drugs on their backs daily at a dose of 0.2 g per mouse, while the blank control group and the model group were only applied with 0.2 g of the test sample drug matrix. One hour after drug administration, the drugs were wiped off with sterile cotton swabs, followed by the application of imiquimod. The above procedures were performed once a day for 7 consecutive days.
After the PASI scoring on day 8 of modeling, blood was collected from the orbital sinus of mice and centrifuged at 3000 rpm for 10 min. The supernatant was extracted to measure the level of IL-17. All procedures were performed following the instructions of the ELISA kit.
Statistical analysis was performed using SPSS software, and the results were expressed as mean ± standard deviation. One-way ANOVA was used for intergroup comparisons. For data with homogeneous variance, the LSD test was used; for data with heterogeneous variance, the Dunnett-t test was used. A value of P < 0.05 was considered statistically significant.

[3] = system: dry eye syndrome model New Zealand rabbits; assay: Dry eye syndrome experiment (benzalkonium chloride model): tear film break-up time; assay type: in vivo, male New Zealand White rabbits; conditions: compared with the model group
[4] = system: inflammatory cytokines IL-6 and IL-12; assay: Anti-asthma pharmacodynamic experiment: inflammatory cytokines in bronchoalveolar lavage fluid (ELISA); assay type: in vivo, female BALB/c mice; conditions: compared with the model group
Description: Pharmacological Example 4: Pharmacodynamic Experiment on Anti-Asthma
The suspensions were stored at room temperature protected from light until use.
Positive control drug: Budesonide Suspension for Inhalation (specification: 2 mL: 1 mg; AstraZeneca Inc.; Lot No. : 327392) was diluted with injection-grade sodium chloride solution to 0.3 mg/ml as the positive control drug, and stored at room temperature protected from light until use.
Sixty female BALB/c mice underwent a one-week adaptive feeding period. Ten mice were randomly selected as the blank control group, while 50 mice were selected to establish asthma models.
From days 21 to 23 after sensitization, the mice in the model group and drug administration group were exposed to a 30-minute aerosol challenge with 5% OVA, while the mice in the blank control group were exposed to normal saline aerosol for the same duration.
At the end of airway hyperresponsiveness testing in mice, the mice were euthanized by cervical dislocation and fixed on a dissection tray. The abdomens and thoracic cavities of the mice were opened, and the skin and excess tissues of the neck were excised to expose the trachea of the mice. A small incision was made transversely on the trachea with a small scissors. A pre-treated 1 mL syringe needle was inserted and fastened with surgical thread. A 1 mL syringe was used to slowly inject 0.5 mL of pre-chilled phosphate-buffered saline (PBS) into the lungs of the mice, followed by slow aspiration. Each mouse was lavaged once, and a total of approximately 0.4 ml of lavage fluid was collected. The bronchoalveolar lavage fluid was centrifuged at 3000 rpm for 5 min. After centrifugation, the supernatant was aliquoted, and the levels of inflammatory cytokines IL-6 and IL-12 in the bronchoalveolar lavage fluid were determined using ELISA kits.
Statistical analysis was performed using SPSS software. Measurement data were expressed as mean ± standard deviation. One-way ANOVA was used for intergroup comparisons. For data with homogeneous variance, LSD test was used; for data with heterogeneous variance, Dunnett-t test was used. A value of P < 0.05 was considered statistically significant.

[5] = system: dry eye syndrome model New Zealand rabbits; assay: Dry eye syndrome experiment (benzalkonium chloride model): corneal fluorescein sodium staining; assay type: in vivo, male New Zealand White rabbits; conditions: compared with the model group
Description: Pharmacological Example 6: Therapeutic Pharmacodynamic Experiment on Dry Eye Syndrome in New Zealand Rabbits
Positive control drug: Fluorometholone Eye Drops (specification: 5 mL/5 mg; Santen Pharmaceutical (CHINA) Co., Ltd.; Lot No.: 1FM6625) was used as the positive control drug and stored at room temperature protected from light until use.
Thirty male New Zealand White rabbits (conventional grade) were prepared. Six rabbits were randomly selected as the blank control group, and the remaining animals were administered 0.1% benzalkonium chloride to the left eye twice daily (morning and evening) , 10 µL/animal each time. […] During the administration, all animals except the blank control group were administered 10 µL of 0.1% benzalkonium chloride to the left eye once daily to maintain dry eye symptoms..
• Test time: D3, D7, D15; • Test animals: All animals were tested before grouping; all enrolled surviving animals were tested after administration; • Test method: 2 µL of 1% Fluorescein sodium was dropped into the conjunctival sac. After 5 s, the excess fluorescein was rinsed with 0.9% normal saline. The conjunctival staining was observed under a slit lamp with cobalt blue diffused light.
The normality and homogeneity of variance were tested by Levene's test. If there was no statistical significance (P > 0.05), one-way analysis of variance (ANOVA) was used for statistical analysis. If ANOVA was statistically significant (P ≤ 0.05), LSD test (parametric method) was used for comparative analysis. If the variance was heterogeneous (P ≤ 0.05), Kruskal-Wallis test was used. If the Kruskal-Wallis test was statistically significant (P ≤ 0.05), Dunnett's test (nonparametric method) was used for comparative analysis.

[6] = biological target: T1, glucocorticoid receptor (GR) (Homo sapiens, UniProt P04150); assay: Assay for agonist activity on glucocorticoid receptor (luciferase reporter, HEK293 cells transfected with pBIND-GR plasmid); assay type: cell-based
T1 sequence (P04150 521-777): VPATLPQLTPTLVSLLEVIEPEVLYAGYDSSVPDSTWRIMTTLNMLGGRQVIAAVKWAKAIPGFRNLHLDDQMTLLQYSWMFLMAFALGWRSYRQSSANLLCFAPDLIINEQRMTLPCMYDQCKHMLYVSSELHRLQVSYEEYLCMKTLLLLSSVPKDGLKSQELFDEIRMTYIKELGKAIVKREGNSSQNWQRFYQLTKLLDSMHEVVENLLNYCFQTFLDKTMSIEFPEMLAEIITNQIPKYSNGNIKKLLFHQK
Outline: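 Readout is luciferase luminescence, with EC50 derived by nonlinear fitting. Compounds ran at 10 concentrations (4-fold steps, top 10 µM, duplicate wells) on pBIND-GR-transfected HEK293 cells in phenol red-free DMEM plus 5% charcoal-stripped serum; 0.1% DMSO served as blank.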

[7] = Pharmacokinetic (PK) experiment in rats; assay type: in vivo, male SD rats; conditions: same experimental conditions
Outline: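 Male SD rats dosed by body weight, oral group fasted overnight until 4 h post-dose. Jugular blood sampled 2 min–24 h into heparin; plasma analysed and PK parameters derived from concentration–time data.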

[8] = system: inflammatory bowel disease model rats; assay: Inflammatory bowel disease experiment (TNBS model): macroscopic injury score of the colon; assay type: in vivo; conditions: compared with the model group
Outline: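 Colitis in rats was induced by intrarectal TNBS 50 mg/kg (20 mg/mL in 50% ethanol) after 24 h fasting. Dosing began 1 h before induction, then daily for 5 days. On day 5 colon was scored macroscopically for adhesion, obstruction, wall thickening, congestion and necrosis, with ANOVA/Dunnett or Kruskal-Wallis/Mann-Whitney statistics.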

[9] = GR agonist EC50 (nM), HEK293 cells transfected with pBIND-GR, luciferase signal
[10] = Nuclear receptor enzyme activity (nM) GR, EC50 of agonist activity, HEK293 reporter cells

C[C@]12C=CC(=O)C=C1[C@@H](F)C[C@H]1[C@@H]3C[C@H]4OC(c5ccc(CSC6CCOC6=O)cc5)O[C@@]4(C(=O)SCC#N)[C@@]3(C)C[C@H](O)[C@@]12F (stereo partly drawn) [Compound 35, S-(Cyanomethyl) (2S,6aS,6bR,7S,8aS,8bS,11aR,12aS,12bS)-2,6b-difluoro-7-hydroxy-6a,8a-dimethyl-4-oxo-10-(4-( ((2-oxotetrahydrofuran-3-yl)thio)methyl)phenyl)-1,2,4,6a,6b,7,8,8a,11a,12,12a,12b-dodecahydro-8bH-naphtho[2',1':4,5]indeno[1,2-d][1,3]dioxole-8b-carbothioate]
ocular abnormalities / ocular pathological score [1]: significantly improved ocular abnormalities | level of IL-17 / inflammatory cytokines in psoriasis model mice [2]: significantly inhibited inflammatory cytokines in the skin of psoriasis model mice | tear film break-up time [3]: significantly increased the tear film break-up time | Effects on inflammatory cytokines in bronchoalveolar lavage fluid of mice [4]: pharmacological effects similar to those of compound 23 | inflammatory response on the ocular surface / ocular symptoms [5]: significantly alleviated the ocular symptoms in dry eye syndrome model New Zealand rabbits | EC50 [6, 9]: 0.21 nM | EC50 [6, 10]: 0.21 nM | pharmacokinetic properties (plasma clearance rate, systemic exposure) [7]: pharmacokinetic properties similar to those of compound 8 | inflammatory response on the intestinal surface / intestinal symptoms [8]: significantly alleviated the intestinal symptoms in inflammatory bowel disease model rats

C[C@]12C=CC(=O)C=C1[C@@H](F)C[C@H]1[C@@H]3C[C@H]4OC(c5ccc(CSC6CCOC6=O)cc5)O[C@@]4(C(=O)OCF)[C@@]3(C)C[C@H](O)[C@@]12F (stereo partly drawn) [Compound 36, Fluoromethyl (2S,6aS,6bR,7S,8aS,8bS,11aR,12aS,12bS)-2,6b-difluoro-7-hydroxy-6a,8a-dimethyl-4-oxo-10-(4-( ((2-oxotetrahydrofuran-3-yl)thio)methyl)phenyl)-1,2,4,6a,6b,7,8,8a,11a,12,12a,12b-dodecahydro-8bH-naphtho[2',1':4,5]indeno[1,2-d][1,3]dioxole-8b-carboxylate]
ocular abnormalities / ocular pathological score [1]: significantly improved ocular abnormalities | level of IL-17 / inflammatory cytokines in psoriasis model mice [2]: significantly inhibited inflammatory cytokines in the skin of psoriasis model mice | tear film break-up time [3]: significantly increased the tear film break-up time | Effects on inflammatory cytokines in bronchoalveolar lavage fluid of mice [4]: pharmacological effects similar to those of compound 23 | inflammatory response on the ocular surface / ocular symptoms [5]: significantly alleviated the ocular symptoms in dry eye syndrome model New Zealand rabbits | EC50 [6, 9]: 0.12 nM | EC50 [6, 10]: 0.12 nM | pharmacokinetic properties (plasma clearance rate, systemic exposure) [7]: pharmacokinetic properties similar to those of compound 8 | inflammatory response on the intestinal surface / intestinal symptoms [8]: significantly alleviated the intestinal symptoms in inflammatory bowel disease model rats

C[C@]12C=CC(=O)C=C1[C@@H](F)C[C@H]1[C@@H]3C[C@H]4OC(c5ccc(CSC6CCOC6=O)cc5)O[C@@]4(C(=O)OCC#N)[C@@]3(C)C[C@H](O)[C@@]12F (stereo partly drawn) [Compound 37, Cyanomethyl (2S,6aS,6bR,7S,8aS,8bS,11aR,12aS,12bS)-2,6b-difluoro-7-hydroxy-6a,8a-dimethyl-4-oxo-10-(4-( ((2-oxotetrahydrofuran-3-yl)thio)methyl)phenyl)-1,2,4,6a,6b,7,8,8a,11a,12,12a,12b-dodecahydro-8bH-naphtho[2',1':4,5]indeno[1,2-d][1,3]dioxole-8b-carboxylate]
ocular abnormalities / ocular pathological score [1]: significantly improved ocular abnormalities | level of IL-17 / inflammatory cytokines in psoriasis model mice [2]: significantly inhibited inflammatory cytokines in the skin of psoriasis model mice | tear film break-up time [3]: significantly increased the tear film break-up time | Effects on inflammatory cytokines in bronchoalveolar lavage fluid of mice [4]: pharmacological effects similar to those of compound 23 | inflammatory response on the ocular surface / ocular symptoms [5]: significantly alleviated the ocular symptoms in dry eye syndrome model New Zealand rabbits | EC50 [6, 9]: 0.78 nM | pharmacokinetic properties (plasma clearance rate, systemic exposure) [7]: pharmacokinetic properties similar to those of compound 8 | inflammatory response on the intestinal surface / intestinal symptoms [8]: significantly alleviated the intestinal symptoms in inflammatory bowel disease model rats

C[C@]12C=CC(=O)C=C1[C@@H](F)C[C@H]1[C@@H]3C[C@H]4OC(c5ccc(CSC6CCOC6=O)nc5)O[C@@]4(C(=O)CO)[C@@]3(C)C[C@H](O)[C@@]12F (stereo partly drawn) [Compound 46, (25,6aS,6bR,78,8a8,8bS,11aR,12a8,12b8S)-2,6b-Difluoro-7-hydroxy-8b-(2-hydroxyacetyl)-6a,8a-dimethyl-10-(6-(((2-oxotetrahydrofuran-3-yl)thio)methyl)pyridin-3-yl)-1,2,6a,6b,7,8,8a,8b,11a,12, 12a,12b-dodecahydro-4H-naphtho[2',1':4,5]indeno[1,2-d][1,3]dioxol-4-one]
ocular abnormalities / ocular pathological score [1]: significantly improved ocular abnormalities | level of IL-17 / inflammatory cytokines in psoriasis model mice [2]: significantly inhibited inflammatory cytokines in the skin of psoriasis model mice | tear film break-up time [3]: significantly increased the tear film break-up time | Effects on inflammatory cytokines in bronchoalveolar lavage fluid of mice [4]: pharmacological effects similar to those of compound 23 | inflammatory response on the ocular surface / ocular symptoms [5]: significantly alleviated the ocular symptoms in dry eye syndrome model New Zealand rabbits | EC50 [6, 9]: 0.23 nM | pharmacokinetic properties (plasma clearance rate, systemic exposure) [7]: pharmacokinetic properties similar to those of compound 8 | inflammatory response on the intestinal surface / intestinal symptoms [8]: significantly alleviated the intestinal symptoms in inflammatory bowel disease model rats

C[C@]12C=CC(=O)C=C1CC[C@H]1[C@@H]3C[C@H]4OC(c5ccc(CSC6CCOC6=O)nc5)O[C@@]4(C(=O)CO)[C@@]3(C)C[C@H](O)[C@@]12F (stereo partly drawn) [Compound 47, (6aS,6bR,7S,8aS,8bS,11aR,12aS,12bS)-6b-Fluoro-7-hydroxy-8b-(2-hydroxyacetyl)-6a,8a-dimethyl-10-(6-(((2-oxotetrahydrofuran-3-yl)thio)methyl)pyridin-3-yl)-1,2,6a,6b,7,8,8a,8b,11a,12,12a,12 b-dodecahydro-4H-naphtho[2',1':4,5]indeno[1,2-d][1,3]dioxol-4-one]
ocular abnormalities / ocular pathological score [1]: significantly improved ocular abnormalities | level of IL-17 / inflammatory cytokines in psoriasis model mice [2]: significantly inhibited inflammatory cytokines in the skin of psoriasis model mice | tear film break-up time [3]: significantly increased the tear film break-up time | Effects on inflammatory cytokines in bronchoalveolar lavage fluid of mice [4]: pharmacological effects similar to those of compound 23 | inflammatory response on the ocular surface / ocular symptoms [5]: significantly alleviated the ocular symptoms in dry eye syndrome model New Zealand rabbits | EC50 [6, 9]: 0.34 nM | EC50 [6, 10]: 0.34 nM | pharmacokinetic properties (plasma clearance rate, systemic exposure) [7]: pharmacokinetic properties similar to those of compound 8 | inflammatory response on the intestinal surface / intestinal symptoms [8]: significantly alleviated the intestinal symptoms in inflammatory bowel disease model rats
